The term GI50 denotes the concentration that inhibits growth by half.

Each structure is given as a SMILES string. Where only a bound is given, the exact number is not on record here.

The test system of assay [1] is T-Rex 293 cell line SC3 cells lacking increased expression of androgen receptor protein. Description: Cellular growth inhibition, T-Rex 293 SC3 cells without doxycycline, CellTiter-Glo. It is filed as cell-based. Conditions: 72 h, T-Rex 293 SC3 cells not exposed to doxycycline, CellTiter-Glo 2.0. Put shortly: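 Cells of clone SC3 are seeded in charcoal-dextran-stripped serum medium with or without 10 ng/mL doxycycline to induce wild-type androgen receptor. After 24 h, serial compound dilutions are added at 0.5% DMSO and incubated 72 h at 37 °C. CellTiter-Glo 2.0 measures viability, giving GI50 values.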
A general note: Cellular ATP, detected with luciferase, serves as a proxy for viable cell number.

For assay [2], the system named is VCaP cells. Description: Cellular growth inhibition assay for VCaP cells, CellTiter-Glo. It is filed as cell-based, human. Conditions: Homo sapiens, VCaP, 72 h, 72 hours treatment, CellTiter-Glo 2.0. A digest of the protocol: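 GI50 values come from four-parameter curve fits of luminescence data normalized to a zero baseline. Compound, in medium with 0.5% DMSO, was added one day after plating and left for 72 h before CellTiter-Glo 2.0 addition.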

Consider `Cc1sc2c(c1C)C(c1cccc(OCCOCCOCCOC3CCN(c4ncc(C(=O)N[C@H]5C(C)(C)[C@H](Oc6ccc(C#N)c(Cl)c6)C5(C)C)cn4)CC3)c1)=N[C@@H](CC(=O)O)c1nnc(C)n1-2` [Compound I-43], for which the GI50 in assay [1] and in assay [2] was more than 3000 nM throughout.

Take `CCNC(=O)C[C@@H]1N=C(c2ccc(OCCOCCOC3CCN(c4ncc(C(=O)N[C@H]5C(C)(C)[C@H](Oc6ccc(C#N)c(Cl)c6)C5(C)C)cn4)CC3)cc2)c2c(sc(C)c2C)-n2c(C)nnc21` [Compound I-44]: the GI50 is 500 to 1500 nM in assay [1] and less than 500 nM in assay [2].

On to `CCNC(=O)C[C@@H]1N=C(c2ccc(OCCOCCOCCOC3CCN(c4ncc(C(=O)N[C@H]5C(C)(C)[C@H](Oc6ccc(C#N)c(Cl)c6)C5(C)C)cn4)CC3)cc2)c2c(sc(C)c2C)-n2c(C)nnc21` [Compound I-45, N-((1r,3r)-3-(3-chloro-4-cyanophenoxy)-2,2,4,4-tetramethylcyclobutyl)-2-(4-(2-(2-(2-(4-((S)-6-(2-(ethylamino)-2-oxoethyl)-2,3,9-trimethyl-6H-thieno[3,2-f][1,2,4]triazolo[4,3-a][1,4]diazepin-4-yl)phenoxy)ethoxy)ethoxy)ethoxy)piperidin-1-yl)pyrimidine-5-carboxamide], for which the results for the GI50 in assay [1] and in assay [2] were 500 to 1500 nM and less than 500 nM, respectively.

In the case of `CCNC(=O)C[C@@H]1N=C(c2cccc(OCCOC3CCN(c4ncc(C(=O)N[C@H]5C(C)(C)[C@H](Oc6ccc(C#N)c(Cl)c6)C5(C)C)cn4)CC3)c2)c2c(sc(C)c2C)-n2c(C)nnc21` [Compound I-46, N-((1r,3r)-3-(3-chloro-4-cyanophenoxy)-2,2,4,4-tetramethylcyclobutyl)-2-(4-(2-(3-((S)-6-(2-(ethylamino)-2-oxoethyl)-2,3,9-trimethyl-6H-thieno[3,2-f][1,2,4]triazolo[4,3-a][1,4]diazepin-4-yl)phenoxy)ethoxy)piperidin-1-yl)pyrimidine-5-carboxamide], the GI50 in assay [1] and in assay [2] was 500 to 1500 nM each time.

For `CCNC(=O)C[C@@H]1N=C(c2cccc(OCCOCCOC3CCN(c4ncc(C(=O)N[C@H]5C(C)(C)[C@H](Oc6ccc(C#N)c(Cl)c6)C5(C)C)cn4)CC3)c2)c2c(sc(C)c2C)-n2c(C)nnc21` [Compound I-47, N-((1r,3r)-3-(3-chloro-4-cyanophenoxy)-2,2,4,4-tetramethylcyclobutyl)-2-(4-(2-(2-(3-((S)-6-(2-(ethylamino)-2-oxoethyl)-2,3,9-trimethyl-6H-thieno[3,2-f][1,2,4]triazolo[4,3-a][1,4]diazepin-4-yl)phenoxy)ethoxy)ethoxy)piperidin-1-yl)pyrimidine-5-carboxamide], the GI50 in assay [1] and in assay [2] was 500 to 1500 nM each time.

Take `CCNC(=O)C[C@@H]1N=C(c2cccc(OCCOCCOCCOC3CCN(c4ncc(C(=O)N[C@H]5C(C)(C)[C@H](Oc6ccc(C#N)c(Cl)c6)C5(C)C)cn4)CC3)c2)c2c(sc(C)c2C)-n2c(C)nnc21` [Compound I-48, N-((1r,3r)-3-(3-chloro-4-cyanophenoxy)-2,2,4,4-tetramethylcyclobutyl)-2-(4-(2-(2-(2-(3-((S)-6-(2-(ethylamino)-2-oxoethyl)-2,3,9-trimethyl-6H-thieno[3,2-f][1,2,4]triazolo[4,3-a][1,4]diazepin-4-yl)phenoxy)ethoxy)ethoxy)ethoxy)piperidin-1-yl)pyrimidine-5-carboxamide]: the concentration for 50% growth inhibition (GI50) was 500 to 1500 nM in assay [1] and less than 500 nM in assay [2].

On to `Cc1sc2c(c1C)C(c1ccc(OC3CC4(CCN(c5ncc(C(=O)N[C@H]6C(C)(C)[C@H](Oc7ccc(C#N)c(Cl)c7)C6(C)C)cn5)CC4)C3)cc1)=N[C@@H](Cc1ncco1)c1nnc(C)n1-2` [Compound I-49, N-[3-(3-chloro-4-cyano-phenoxy)-2,2,4,4-tetramethyl-cyclobutyl]-2-[2-[4-[(9S)-4,5,13-trimethyl-9-(oxazol-2-ylmethyl)-3-thia-1,8,11,12-tetrazatricyclo[8.3.0.02,6]trideca-2(6),4,7,10,12-pentaen-7-yl]phenoxy]-7-azaspiro[3.5]nonan-7-yl]pyrimidine-5-carboxamide], for which the GI50 in assay [1] and in assay [2] was less than 500 nM throughout.

The record behind these values is patent publication US20260062422A1 (Halda Therapeutics OpCo, Inc., priority 2022, published 2026).
